The values that follow come from paper PMC9866191, “Novel 9-Benzylaminoacridine Derivatives as Dual Inhibitors of Phosphodiesterase 5 and Topoisomerase II for the Treatment of Colon Cancer” (Molecules, 2023).

One data set relates to HCT-116. The data set is described as follows: MTT cell proliferation assay, HCT-116. As to conditions: for % Inhibition at 10 µM: 72 h MTT, means ± SD.
A further data set relates to CCD-966SK. The data set is described as follows: MTT cell proliferation assay, CCD-966SK. The following applies: CCD966SK skin fibroblast; 10 µM; 72 h MTT. (Tetrazolium dyes change colour on reduction, which living cells bring about.)
Another data set relates to PDE5. More on the design: method as in PMID 29656464. As to conditions: Figure 1; cited from earlier work.
For the next data set, the target named is T1, PDE5A (Homo sapiens, UniProt O76074).
T1 construct: purchased BPS Bioscience, San Diego, CA, USA
The data set is described as follows: Phosphodiesterase 5 HTRF cGMP assay. It is filed as biochemical. Here is the method: All the synthesized acridine derivatives were tested for their in vitro ability to inhibit PDE5A at a screening dose of 10 µM.
The enzyme activities of phosphodiesterase 5 (PDE5) were measured using an HTRF cGMP assay kit (Cisbio, Codolet, France). […] Afterward, the HTRF reagent (cGMP-d2 and anti-cGMP-cryptate) was added for 1 h at 25 °C, and PDE activity was assayed on an HTRF reader (Tecan Infinite F200 Pro).
For orientation: TR-FRET usually uses a lanthanide donor and a delayed reading to cut background.

What is called % Inhibition is the share of the control response that was lost under treatment. A high value points to strong suppression. For orientation: IC50 means the concentration needed to halve the response being measured. In the case of `N.N.[Cl][Pt][Cl]` [cisplatin, reference compound], the figures for the “% Inhibition at 10 µM” value in the data set with HCT-116 and in the data set on CCD-966SK were 83.00 ± 0.38% and 38.73 ± 5.19%, respectively. In addition, in the data set with HCT-116 (read-out: IC50 μM, 72 h MTT, means ± SD, three experiments), the IC50 came out at 3.62 ± 0.19 µM.

As for `c1ccc(CNc2ncnc3sc4c(c23)CCC4)cc1` [C], in the data set with PDE5, the IC50 was 420 nM.

For orientation: inhibition means the drop in the measured response relative to a control, in per cent. Usually melting point stands for the temperature, or range, at which the solid turns liquid. The molecule `c1csc(CNc2c3ccccc3nc3ccccc23)c1` [Compound 15, Acridin-9-yl-thiophen-2-ylmethyl-amine] showed a melting point of 121 to 123 °C. In addition, the IC50 at PDE5A (means ± S.D. (n = 4), read-out: PDE5 IC50) turned out to be 6430 ± 1300 nM. Besides, the inhibition at 10 µM on PDE5A (read-out: PDE5 % Inhibition at 10 μM) is 58.4 ± 1.47%. In addition, in the data set on HCT-116, the “% Inhibition at 10 µM” value came to 39.65 ± 4.72%. In addition, the “% Inhibition at 10 µM” value with CCD-966SK stood at 11.54 ± 0.04%.

On to `c1ccc(CNc2ncnc3sc4c(c23)CCCCC4)cc1` [B], for which the IC50 with PDE5 was 190 nM.
